According to PMC10147046, “Assessment of Various Food Proteins as Structural Materials for Delivery of Hydrophobic Polyphenols Using a Novel Co-Precipitation Method” (Molecules, 2023):
Converted amounts (≈) assume the structure as drawn.

What was measured:
[1] = Solubility of the powders in water (phosphate buffer), HPLC quantification; format: physicochemical; settings: for solubility at 24 h: aqueous buffer, thermodynamic from solid; for Increase in solubility of co-precipitate compared to intrinsic (untreated) solubility: polyphenol co-precipitated with protein and trehalose vs untreated, phosphate buffer pH 7.0
Description: To measure the amount of the polyphenol entrapped inside the NaCas, SPI, and WPI precipitates (entrapment efficiency), the concentration of each polyphenol in the supernatants was determined by high-performance liquid chromatography (HPLC) following different methods (depending on the polyphenol). The HPLC instrument was equipped with a UV/visible diode array detector (Agilent Technologies, 1200 Series, Santa Clara, CA, USA). The column was a reverse-phase PrevailTM C18 with dimensions of 4.6 cm × 150 mm and 5 µm particle size (Grace Alltech, Columbia, MD, USA). The composition and conditions of the mobile phase varied based on the method used for the quantification of each polyphenol. […] The sample injection volume for all cases was 20 µL. Different polyphenols were detected at different wavelengths and different retention times; e.g., naringenin and rutin were detected at 10.15 and 4.8 min, respectively. For the calibration of the HPLC column and quantification of each polyphenol in the samples, standard solutions of various concentrations of pure polyphenols (94 to 98%) in the mobile phase were used. […] Thermo Scientific, Waltham, MA, USA) before injecting them into the HPLC column. […] The dispersibility of the lyophilized powders and the untreated samples was measured according to the method from Ji et al.. For this purpose, we used a Malvern Mastersizer 2000 (Malvern Instruments Ltd., Worcestershire, UK), which was equipped with a 4 mW He–Ne laser operating apparatus. […] To avoid artifacts (large lumps) from the initial dispersion, the Time 0 min measurement was removed, and the data from 2 to 60 min were collected. A separate normalization was applied to the obscuration indices across the dispersion period for each sample by dividing each index by the maximum index. Finally, the volume distribution data were multiplied by the normalized obscuration index at each time point.

[2] = source not given; cited from earlier work
[3] = Dispersibility in water: particle size distribution over time (Malvern Mastersizer 2000); format: physicochemical; settings: for Particle size after treatment in the absence of trehalose: polyphenol precipitate without protein and without trehalose; for Dispersibility of untreated polyphenol: untreated powder, phosphate buffer pH 7.0, over 60 min; for Particle size reached over time, WPI co-precipitates: over 60 min; for Size of additional significant particle population after treatment: distribution at least bi-modal
Description: The particle size distribution of untreated (control) polyphenols vs. the polyphenols co-precipitated with NaCas, SPI, and WPI after dispersion in phosphate buffer (pH 7.0) is presented in Figure 4. As stated in Section 3.6, in the case of the current research, we measured dispersibility based on the decrease in the size of particles dispersed in the aqueous medium over time.
The dispersibility of the lyophilized powders and the untreated samples was measured according to the method from Ji et al.. For this purpose, we used a Malvern Mastersizer 2000 (Malvern Instruments Ltd., Worcestershire, UK), which was equipped with a 4 mW He–Ne laser operating apparatus. To start with, about 30 mg of each powder was added to the dispersion unit containing phosphate buffer (10 mM NaH2PO4, pH 7.0), and this mixture was stirred (2000 rpm) for 60 min. The particle size distribution obscuration values of each sample were read at 2 min intervals and a wavelength of 632.8 nm. To avoid artifacts (large lumps) from the initial dispersion, the Time 0 min measurement was removed, and the data from 2 to 60 min were collected. A separate normalization was applied to the obscuration indices across the dispersion period for each sample by dividing each index by the maximum index. Finally, the volume distribution data were multiplied by the normalized obscuration index at each time point.

[4] = design: method as in PMID 35056844; settings: rutin dissolved in solution maintained at pH 11.0 for 30 min; cited from earlier work
[5] = reference compounds of Table 1; one cell merged over all four solubility columns; no source or measurement printed; cited from earlier work
[6] = design: method as in PMID 30724197; settings: cited from earlier work
[7] = untreated (commercial) polyphenol, phosphate buffer pH 7.0, 25 °C
[8] = polyphenol precipitate without protein, absence of trehalose

| Size of additional significant particle population after treatment [3, 8] | Molecule | solubility at 24 h [1, 7] | Solubility in ethanol [2] | Dispersibility of untreated polyphenol [3] | other results |
| --- | --- | --- | --- | --- | --- |
|  | COc1ccc([C@@H]2CC(=O)c3c(O)cc(O[C@@H]4O[C@H](CO[C@@H]5O[C@@H](C)[C@H](O)[C@@H](O)[C@H]5O)[C@@H](O)[C@H](O)[C@H]4O)cc3O2)cc1O [Hesperidin] | 2 µg/mL (≈ 3.28 µM) | ~1000 µg/mL (≈ 1640 µM) | None of the untreated forms of rutin, naringenin, hesperidin, and curcumin (Figure 4) showed any significant dispersibility over 60 min | Particle size after treatment in the absence of trehalose [3]: 30 μm; Particle size, untreated polyphenol ([3]; untreated powder dispersed in phosphate buffer): ~ 60 μm |
|  | Curcumin |  | ~10000 µg/mL | None of the untreated forms of rutin, naringenin, hesperidin, and curcumin (Figure 4) showed any significant dispersibility over 60 min | Increase in solubility of co-precipitate compared to intrinsic (untreated) solubility [1]: ~10 fold; Solubility (Untreated) [1, 7]: 8 µg/mL; Size of minor particle population after treatment [3, 8]: ~ 160 μm |
| ~0.1 µm | O=C1C[C@@H](c2ccc(O)cc2)Oc2cc(O)cc(O)c21 [Naringenin, (S)-naringenin] | 2 µg/mL (≈ 7.35 µM) | ~1000 µg/mL (≈ 3670 µM) | None of the untreated forms of rutin, naringenin, hesperidin, and curcumin (Figure 4) showed any significant dispersibility over 60 min | Particle size reached over time, WPI co-precipitates [3]: less than 1 μm; Particle size after treatment in the absence of trehalose [3]: ~ 6 μm |
|  | Oc1ccc(-c2ccc(O)cc2O)c(O)c1 [[1,1′-Biphenyl]-2,2′,4,4′-tetrol] |  |  |  | Solubility (reference compounds, in words) [5]: low? |
|  | O=c1c(-c2ccc(O)cc2)coc2cc(O)ccc12 [daidzein] |  |  |  | Enhancement of daidzein solubility ([6]; WPI nanoparticles formed in the presence of daidzein): at least 2 fold; Stability ([6]; WPI-daidzein nanoparticles, 4 °C): stable at 4 °C for at least two months |
| ~0.1 µm | Oc1cc(O)c2c(c1)O[C@H](c1ccc(O)c(O)c1)[C@@H](O)C2 [Catechin, (+)-catechin] | 1.5 µg/mL (≈ 5.17 µM) | ~100000 µg/mL (≈ 345000 µM) | showed some dispersibility | Increase in solubility of co-precipitate compared to intrinsic (untreated) solubility [1]: ~10 fold |

| Molecule | Size of additional significant particle population after treatment [3, 8] | solubility at 24 h [1, 7] | Solubility in ethanol [2] | Dispersibility of untreated polyphenol [3] | other results |
| --- | --- | --- | --- | --- | --- |
| C[C@@H]1O[C@@H](OC[C@H]2O[C@@H](Oc3c(-c4ccc(O)c(O)c4)oc4cc(O)cc(O)c4c3=O)[C@H](O)[C@@H](O)[C@@H]2O)[C@H](O)[C@H](O)[C@H]1O [Rutin] | ~0.1 µm | 110 µg/mL (≈ 180 µM) | about 4 mg/mL | None of the untreated forms of rutin, naringenin, hesperidin, and curcumin (Figure 4) showed any significant dispersibility over 60 min | Degradation [4]: approximately 10%; Particle size reached over time, WPI co-precipitates [3]: less than 1 μm; Size of smaller particles favoured over time, NaCas co-precipitate ([3]; co-precipitate with NaCas, redistribution of particle size over time): 0.1 μm; Effect of treatment (no protein) on dispersibility ([3]; treated polyphenol precipitates with or without trehalose): Treatment improved the dispersibility only of rutin |
